11 compounds from US20120184562A1, “1,6- AND 1,8-NAPHTHYRIDINES” (priority 2011, published 2012) can be followed below.

By EC50 is commonly meant the concentration that produces a half-maximal response. A word on the IC50: it is the point on the concentration scale where inhibition reaches its midpoint.

Structures can show the parent of a compound that is named as a salt.

The subject of test [1] is SW620 human colon cancer cells. Nature of the test: SW620 Cell Viability Assay. The test is classed as cell-based. The settings on record: SW-620, 96 h, 4 days incubation, CellTiter-Glo Luminescent Cell Viability Assay, read-out: Cellular EC50 (μM) SW620. Here is the method: SW620 Cell Viability Assay
1. Cell Plate Preparation: SW620 human colon cancer cells (known to express DYRK1B), obtained from ATCC, were seeded into 96-well plates at 3×10^3 cells/well in 50 μL of media. • Harvested the required number of cells (counts & viability determined by Guava Viacount). • Centrifuge cells to pellet and removed supernant. • Resuspended in growth media (50 μL/well) & pipetted thoroughly to break up clumps. • Setup for ˜100 wells/plate, therefore, VT=5 mL/plate @ […]. 1A. Some cells (S—) were allowed to attach for 24 hrs, serum starved for 48 hrs, and then followed with drug treatments. Test compound solution were prepared in regular corresponding media supplemented with serum. 2. Test Compound Preparation: Test compounds were solubilized in either DMSO or media and prepared at various stock concentrations. • All compounds were incubated at 37° C. for 30 minutes and vortexed. • (5 mM stocks of test compound were prepared for non-soluble compounds)
• The 10 mM test compound stock was diluted to a concentration of 100× the final Cmax concentration. • Then the test compound stock is diluted 50-fold in media and/or second compound for a final Cmax concentration in the test compound plate. • The Cmax in the test compound plate (2% DMSO) is 2-fold higher than the final Cmax in the cell plate (60 uL titrations were 1:3). 4. Viability Assay: This assay was performed as follows: • Transfer 50 μL of test compound solution per well from the test compound plate onto the cell plate prepared in Step #1. • Mix the plate with treated cells by pipetting up and down three times with 200 μL multi-channel pipette. • Incubate the cells in 5% CO2 incubator @ 37° C. for 4 days. • Run the CellTiter-Glo™ Luminescent Cell Viability Assay.
The results of this assay, given as EC50 values, indicate the concentration of test compound that inhibits tumor cell proliferation by 50%.
A general note: In ATP-based viability assays light output follows the ATP content of the culture.

The target in test [2] is T1, Human DYRK1B (Homo sapiens, UniProt Q9Y463).
T1 construct: purchased Invitrogen PR8350B (former PV4649)
As to the kind of experiment: DYRK1B Kinase TR-FRET (IMAP-Tb) Assay. The test is classed as biochemical. The settings on record: TR-FRET (IMAP-Tb); ATP 70 μM; 37° C., 60 minutes; average of multiple runs; read-out: Enzyme IC50 (μM) DYRK1B. An excerpt:
DYRK1B Kinase TR-FRET (IMAP-Tb) Assay The kinase TR-FRET (IMAP-Tb) assay uses a fluorescence labeled substrate peptide in the kinase reaction. Upon phosphorylation by the kinase, phosphopeptide is produced, which will be detected by the binding solution provided in IMAP TR-FRET binding kit. After the completion of the kinase reaction, the reaction will be stopped by adding the binding solution containing terbium tracer. This tracer is immobilized on the surface of the IMAP beads, which also contain metal ions on the beads that bind to the phospho-groups of the products. Thus the phosphorylated product of the reaction can enter into close proximity to the tracer, producing resonance energy transfer. Due to the long lifetime of terbium (Tb) fluorescence the detection can be run in time resolved mode, which virtually eliminates fluorescence interference from assay components or compounds. The TR-FRET signal measurement from this assay, given as an IC50 measurement, is a measure of a test compound's ability to interfere with the phosphorylation of the peptide substrate, that is it inhibits the phosphorylation of the substrate peptide by DYRK1B, and is thus a measure of the test compound's ability to inhibit the activity of DYRK1B. […] Human DYRK1B: from Invitrogen. Part #PR8350B (former PV4649) • 2. Substrate Peptide: in-house synthesized: RRRFRPASPLRGPPK • 3. IMAP TR-FRET IPP Explorer Kit: from Molecular Devices. Part #R8157 • 4. Kinase Assay Buffer (KAB): 10 mM HEPES pH 7.0, 50 mM NaCl, 5 mM MgCl2, 1 mM DTT, 1 mM NaVO4, 200 μg/mL BSA (0.02%) • 5. Assay Plate: Remp polypropylene clear 384-well microplate. Cat#23490-102 • 6. Detection Plate: Costa black 384-well microplate. Cat #3710 Assay Procedure: This assay was performed as follows: • 1. Transfer 1.5 μL of 20× compound solution to each well of an assay plate. • 2. Add to each well 22.5 μL of KAB Buffer. • 3. Add to each well 3 μL of the solution of DYRK1B and ATP. […] Add to each well 3 μL of the substrate peptide. The assay concentration is 1.0 μM • 5. Incubate the assay plates at 37° C. for 60 minutes. • 6. Add 18 μL of Detection Solution (1:800 diluted Progress bead stock, 1:400 diluted Tb stock, 80% Buffer A, and 20% Buffer B) into each well of detection plates. • 7. Transfer 6 μL of assay solution from the assay plate to the detection plate. • 8. Shake detection plates for 30 minutes. • 9. Read plates in Envision with wavelength set at excitation 340 nm for Tb, emission 490 nm, and […] 520 nm. • 10. Calculation: TR-FRET Signal=(Reading at […]/Reading at 490 nM)×2000000
A general note: In TR-FRET formats the signal depends on donor and acceptor labels being close together.

Test [3] addresses T2, Human DYRK1A (Homo sapiens, UniProt Q13627).
T2 construct: purchased Invitrogen PV3997
As to the kind of experiment: DYRK1A Kinase TR-FRET (IMAP-Tb) Assay. The test is classed as biochemical. The note with it: TR-FRET (IMAP-Tb); ATP 70 μM; 37° C., 60 minutes; average of multiple runs; read-out: Enzyme IC50 (μM) DYRK1A. An excerpt: DYRK1A Kinase TR-FRET (IMAP-Tb) Assay
The kinase TR-FRET (IMAP-Tb) assay uses a fluorescence labeled substrate peptide in the kinase reaction. Upon phosphorylation by the kinase, phosphopeptide is produced, which will be detected by the binding solution provided in IMAP TR-FRET binding kit. After the completion of the kinase reaction, the reaction will be stopped by adding the binding solution containing terbium tracer. This tracer is immobilized on the surface of the IMAP beads, which also contain metal ions on the beads that bind to the phospho-groups of the products. Thus the phosphorylated product of the reaction can enter into close proximity to the tracer, producing resonance energy transfer. Due to the long lifetime of terbium (Tb) fluorescence the detection can be run in time resolved mode, which virtually eliminates fluorescence interference from assay components or compounds.
The TR-FRET signal measurement from this assay, given as an IC50 measurement, is a measure of a test compound's ability to interfere with the phosphorylation of the peptide substrate, that is it inhibits the phosphorylation of the substrate peptide by DYRK1A, and is thus a measure of the test compound's ability to inhibit the activity of DYRK1A.
• 1. Human DYRK1A: from Invitrogen. Part #PV3997 • 2. Substrate Peptide: […] • 3. IMAP TR-FRET IPP Explorer Kit: from Molecular Devices. Part #R8157 • 4. Kinase Assay Buffer (KAB): 10 mM HEPES pH 7.0, 50 mM NaCl, 5 mM MgCl2, 1 mM DTT, 1 mM NaVO4, 200 μg/mL BSA (0.02%) • 5. Assay Plate: Remp polypropylene clear 384-well microplate. […] Detection Plate: Costa black 384-well microplate. […] Transfer 1.5 μL of 20× compound solution to each well of an assay plate. • 2. Add to each well 22.5 μL of KAB Buffer. • 3. Add to each well 3 μL of the solution of DYRK1A and ATP. […] Add to each well 3 μL of the substrate peptide. The assay concentration is 1.0 μM • 5. Incubate the assay plates at 37° C. for 60 minutes. • 6. Add 18 μL of Detection Solution (1:800 diluted Progress bead stock, 1:400 diluted Tb stock, 80% Buffer A, and 20% Buffer B) into each well of detection plates. • 7. Transfer 6 μL of assay solution from the assay plate to the detection plate. • 8. Shake detection plates for 30 minutes. • 9. Read plates in Envision with wavelength set at excitation 340 nm for Tb, emission 490 nm, and […].

T1 sequence (Q9Y463 whole entry): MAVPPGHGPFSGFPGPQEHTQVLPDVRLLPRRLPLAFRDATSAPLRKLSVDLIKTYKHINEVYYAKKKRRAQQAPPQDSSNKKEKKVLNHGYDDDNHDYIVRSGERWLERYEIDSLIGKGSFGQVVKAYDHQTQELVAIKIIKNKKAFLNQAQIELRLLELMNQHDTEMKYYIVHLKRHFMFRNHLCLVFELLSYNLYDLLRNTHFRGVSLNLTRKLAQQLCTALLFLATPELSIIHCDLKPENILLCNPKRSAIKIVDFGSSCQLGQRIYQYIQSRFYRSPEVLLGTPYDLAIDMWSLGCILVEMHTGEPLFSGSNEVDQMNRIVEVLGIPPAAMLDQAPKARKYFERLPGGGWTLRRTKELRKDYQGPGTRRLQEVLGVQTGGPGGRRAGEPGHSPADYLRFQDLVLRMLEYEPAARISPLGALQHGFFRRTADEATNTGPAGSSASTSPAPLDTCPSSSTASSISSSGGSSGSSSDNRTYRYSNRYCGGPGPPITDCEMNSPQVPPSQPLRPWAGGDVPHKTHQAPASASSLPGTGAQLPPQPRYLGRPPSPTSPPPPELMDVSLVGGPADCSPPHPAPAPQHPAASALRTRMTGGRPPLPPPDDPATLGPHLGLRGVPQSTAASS

`COc1cc2[nH]c(=O)c(C(=O)Nc3cc(C(=O)NC(CN)c4cccc(Cl)c4)ccc3C)cc2cn1` (stereo not drawn) [Example 57, 7-Methoxy-2-oxo-1,2-dihydro-[1,6]naphthyridine-3-carboxylic acid {5-[2-amino-1-(3-chloro-phenyl)-ethylcarbamoyl]-2-methyl-phenyl}-amide; hydrochloride]: the EC50 in test [1] came out at 0.496 µM. Also, the figures for the concentration for half-maximal inhibition (IC50) in test [2] and in test [3] were 0.146 µM and 0.0512 µM, respectively.

Regarding `COc1cc2[nH]c(=O)c(C(=O)Nc3cc(C(=O)NC(CN)c4ccsc4)ccc3C)cc2cn1` (stereo not drawn) [Example 59, 7-Methoxy-2-oxo-1,2-dihydro-[1,6]naphthyridine-3-carboxylic acid [5-(2-amino-1-thiophen-3-yl-ethylcarbamoyl)-2-methyl-phenyl]-amide; hydrochloride], the EC50 in test [1] was 0.299 µM. Besides, the results for the IC50 in test [2] and in test [3] were 0.0308 µM and 0.0113 µM, respectively.

`COc1cc2[nH]c(=O)c(C(=O)Nc3cc(C(=O)NC(CCN)c4ccccc4)ccc3C)cc2cn1` (stereo not drawn) [Example 61, 7-Methoxy-2-oxo-1,2-dihydro-[1,6]naphthyridine-3-carboxylic acid [5-(3-amino-1-phenyl-propylcarbamoyl)-2-methyl-phenyl]-amide; hydrochloride]: in test [1], the EC50 came out at 2.27 µM. Besides, the results for the IC50 in test [2] and in test [3] were 0.155 µM and 0.034 µM, respectively.

Regarding `COc1cc2[nH]c(=O)c(C(=O)Nc3cc(C(=O)NC(CCN)c4ccsc4)ccc3C)cc2cn1` (stereo not drawn) [Example 63, 7-Methoxy-2-oxo-1,2-dihydro-[1,6]naphthyridine-3-carboxylic acid [5-(3-amino-1-thiophen-3-yl-propylcarbamoyl)-2-methyl-phenyl]-amide], the EC50 in test [1] stood at 0.205 µM. In addition, the IC50 in test [2] turned out to be 0.023 µM; in test [3], 0.0046 µM.

Regarding `COc1cc2[nH]c(=O)c(C(=O)Nc3cc(C(=O)NC(CCN)c4cccc(Cl)c4)ccc3C)cc2cn1` (stereo not drawn) [Example 65, 7-Methoxy-2-oxo-1,2-dihydro-[1,6]naphthyridine-3-carboxylic acid {5-[3-amino-1-(3-chloro-phenyl)-propylcarbamoyl]-2-methyl-phenyl}-amide; hydrochloride], in test [1], the concentration for a half-maximal effect (EC50) was 0.915 µM. The figures for the IC50 in test [2] and in test [3] were 0.21 µM and 0.0974 µM, respectively.

On to `COc1cc2[nH]c(=O)c(C(=O)Nc3cc(C(=O)NC(CCN)c4cccc(Cl)c4)ccc3Cl)cc2cn1` (stereo not drawn) [Example 67, 7-Methoxy-2-oxo-1,2-dihydro-[1,6]naphthyridine-3-carboxylic acid {5-[3-amino-1-(3-chloro-phenyl)-propylcarbamoyl]-2-chloro-phenyl}-amide; hydrochloride], for which, in test [1], the EC50 came out at 0.103 µM. Besides, the IC50 in test [2] worked out at 0.0854 µM; in test [3], 0.00952 µM.

As to `COc1cc2[nH]c(=O)c(C(=O)Nc3cc(C(=O)NC(CCN)c4ccccc4)ccc3Cl)cc2cn1` (stereo not drawn) [Example 69, 7-Methoxy-2-oxo-1,2-dihydro-[1,6]naphthyridine-3-carboxylic acid [5-(3-amino-1-phenyl-propylcarbamoyl)-2-chloro-phenyl]-amide; hydrochloride], the concentration giving a half-maximal response (EC50) in test [1] turned out to be 0.256 µM. Further, the IC50 is 0.0137 µM in test [2] and 0.0124 µM in test [3].

Turning to `COC(=O)c1ccc(Cl)c(NC(=O)c2cc3cnc(N4CCN(C)CC4)cc3[nH]c2=O)c1` [Example 73, 4-Chloro-3-{[7-(4-methyl-piperazin-1-yl)-2-oxo-1,2-dihydro-[1,6]naphthyridine-3-carbonyl]-amino}-benzoic acid methyl ester], the EC50 in test [1] was > 10 µM. The IC50 turned out to be 0.96 µM in test [2] and 0.425 µM in test [3].

Turning to `COC(=O)c1ccc(Cl)c(NC(=O)c2cc3ccc(N4CCN(C)CC4)nc3[nH]c2=O)c1` [Example 88, 4-Chloro-3-{[7-(4-methyl-piperazin-1-yl)-2-oxo-1,2-dihydro-[1,8]naphthyridine-3-carbonyl]-amino}-benzoic acid methyl ester], the EC50 in test [1] worked out at 1.53 µM. The values for the IC50 in test [2] and in test [3] were 0.513 µM and 0.451 µM, respectively.

Regarding `COC(=O)c1ccc(Cl)c(NC(=O)c2cc3ccc(OC)nc3[nH]c2=O)c1` [Example 90, 4-Chloro-3-[(7-methoxy-2-oxo-1,2-dihydro-[1,8]naphthyridine-3-carbonyl)-amino]-benzoic acid methyl ester], the EC50 in test [1] was > 10 µM. The values for the IC50 in test [2] and in test [3] were 0.168 µM and > 10 µM, respectively.

`COc1ccc2cc(C(=O)Nc3cc(C(=O)NCc4cccc(Cl)c4)ccc3Cl)c(=O)[nH]c2n1` [Example 95, N-(2-Chloro-5-(3-chlorobenzylcarbamoyl)phenyl)-7-methoxy-2-oxo-1,2-dihydro-1,8-naphthyridine-3-carboxamide]: in test [1], the EC50 amounted to 1.24 µM. Also, the 50% inhibitory concentration (IC50) in test [2] came to 0.047 µM; in test [3], 0.019 µM.
